According to patent EP0680964B1, “PYRROLO [3,2-e]INDOLE DERIVATIVES, PROCESS FOR THE PREPARATION THEREOF AND THEIR USE” (UNIVERSIDAD DE SANTIAGO DE COMPOSTELA, priority 1993, dated 1995):
In brackets after ≈: the same amount, converted by molar mass.

Columns and labels:
[1] = system: P388 leukemic tumor model; experiment: P388 antitumoral model in vivo (survival time, i.p. treatment); set-up: species or system mice; settings: for %C/T: average survival of tested group/average survival of controls
Protocol: Normally, 1x10^6 cells in ascitic fluid was implanted i.p. in CD2F1 mice. Treatment with the agent tested i.p. began one day after the tumor had been implanted and it is continued daily up to a total of 5 injections for synthetic products and of 9 injections for raw natural products. The results are expressed as percentage of the control survival time.
CDFl mice weighing 18-22 gr (+/- 3 gr) were implanted on day 0 of the test period o.1 ml. of a dilution of 1.0x10^7 tumor cells coming from DBA/2N mice used for the propagation of the tumor.
On day 1 of the test period the animals were grouped at random in groups of six animals.Each group is weighed and the average weight is written down. Each compound to be tested in diluted in 4 levels of dosis for each multidose test as of the determination of the highest nontoxic dose (v.g. 400 mg/kg; 100 mg/kg; 10 mg/kg.)
Administration of the test compounds is started on day 1 using volumns of 1/2 drug injected i.p. Injections are given on days 1 to 9 of the test period, unless it is indicated to the contrary. The animals are weighed on day 5, which is the one which in this system is considered the day of toxicity. Toxicity in this test system is defined as: • A. 34 % deaths up to day 5 - acute toxicity • B. C/T<85% - chronic toxicity • C. A negative average of the weight change of the animals> 4 g up to day 5 - chronic toxicity
The data obtained upon testing the compounds in vivo in comparison with the P388 leukemic tumor model in mice are shown in the following table: […]

[2] = mice, therapeutic doses; cited from earlier work
P-388 = experiment: In vitro test, IC50 on P-388; format: cell-based; settings: Mus musculus, P388; P-388, in vitro
Excerpt: (§1) On the other hand, the results of the tests in vitro carried out on compounds (IIIa) and (IIIb) were the following: […]

A-549 = experiment: In vitro test, IC50 on A-549; format: cell-based; settings: Homo sapiens, A549; A-549, in vitro
Excerpt: as §1

HT-29 = experiment: In vitro test, IC50 on HT-29; format: cell-based; settings: Homo sapiens; HT-29, in vitro
Excerpt: as §1

MEL-28 = experiment: In vitro test, IC50 on MEL-28; format: cell-based; settings: Homo sapiens, SK-MEL-28; MEL-28, in vitro
Excerpt: as §1

P388 model = settings: cited from earlier work

## COC(=O)c1cc2c(n1C)C(=O)C=C1N(C(=O)c3cc4cc(OC)c(OC)c(OC)c4[nH]3)CC3CC123 (centres unmarked) [(VI), methyl 2-(5,6,7-trimethoxy-1H-indole-2-carbonyl)-5-methyl-4-oxo-1,2,4,5,8a-hexahydrocyclopropa[c]pyrrolo[3,2-e]indole-7-carboxylate]
[1]; inject. dose 0.500 mg/kg
  %C/T: 210.9%
  Significant activity (class of %C/T): ** (Significant activity (strong): C/T > =175%)

## COc1c(O)c2c(c3cc(C(=O)N4CCc5c4c(O)c(OC)c4[nH]c(C(=O)N6CC7CC78C6=CC(=O)c6[nH]cc(C)c68)cc54)[nH]c13)CCN2C(N)=O (centres unmarked) [CC-1065]
[2]
  delayed lethality: producing delayed deaths in mice at therapeutic doses

## COC(=O)c1cn(C)c2c(OC(C)=O)cc3c(c12)C(CCl)CN3C(=O)c1cc2cc(NC(=O)c3cc4ccccc4o3)ccc2[nH]1 (centres unmarked) [IIIa, methyl 4-acetoxy-6-{5-[(benzofuran-2-yl-carbonyl)-amino]1H-indole-2-carbonyl}-8-chloromethyl-3-methyl-3,6,7,8-tetrahydropyrrolo[3,2-e]indole-1-carboxylate]
P-388
  IC50: 0.01 ng/mL (≈ 0.0156 nM)
A-549
  IC50: 0.05 ng/mL (≈ 0.0782 nM)
HT-29
  IC50: 0.25 ng/mL (≈ 0.391 nM)
MEL-28
  IC50: 0.25 ng/mL (≈ 0.391 nM)

## methyl 2-[5-[(benzofuran-2-ylcarbonyl) amino]-1H-indol-2-carbonyl]-5-methyl-4-oxo,1,2,4,5,8,8,a-hexahydrocyclopropa[c]pyrrolo[3,2-e]indole-7-carboxylate [(IV)]
[1]; inject. dose 0.300 mg/kg
  %C/T: 251.1%
  Significant activity (class of %C/T): ** (Significant activity (strong): C/T > =175%)

## COC(=O)c1cn(C)c2c(O)cc3c(c12)C(CCl)CN3C(=O)c1cc2cc(OC)c(OC)c(OC)c2[nH]1 (centres unmarked) [Compound (V), methyl 6-(5,6,7-trimethoxy-1H-indole-2-carbonyl)-8-chloromethyl-4-hydroxy-3-methyl-3,6,7,8-tetrahydropyrrololo[3,2-e]indole-1-carboxylate]
[1]; inject. dose 0.050 mg/kg
  %C/T: 133.9%
  Significant activity (class of %C/T): ** (Significant activity (strong): C/T > =175%)

## Cc1c[nH]c2c1[C@@]13C[C@@H]1CN(C(=O)c1cc4cc(NC(=O)c5cc6ccccc6o5)ccc4[nH]1)C3=CC2=O [Adocelesine]
[2]
  delayed lethality: without provoking delayed lethality

## O=C(Nc1ccc2[nH]c(C(=O)N3CC4CC45C3=CC(=O)c3ccccc35)cc2c1)c1cc2ccccc2[nH]1 (centres unmarked) [CBI-Ind2]
P388 model
  results in the P388 model in vivo: very good results

## COC(=O)c1cn(C)c2c(O)cc3c(c12)C(CCl)CN3C(=O)c1cc2cc(NC(=O)c3cc4ccccc4o3)ccc2[nH]1 (centres unmarked) [Compound (III), methyl 6-{5-[(benzofuran-2-ylcarbonyl)-amino]1H-indole-2-carbonyl}-8-chloromethyl-4-hydroxy-3-methyl-3,6,7,8,tetrahydropyrrolo[3,2-e]indole-1-carboxylate]
[1]; inject. dose 0.500 mg/kg
  %C/T: >391.3%
